Consider six molecules from patent US7880007B2, “Bicyclic substituted phenyl piperidine modulators of muscarinic receptors” (Vertex Pharmaceuticals Incorporated, priority 2004, dated 2011).

Assay type in all cases: cell-based
Experiment [1] has as its target T1, M1 muscarinic receptor (Homo sapiens, UniProt P11229).
T1 construct: expressed in transfected cells; host or cells: CHO (M1-CHO)
T1 sequence (P11229 1-460): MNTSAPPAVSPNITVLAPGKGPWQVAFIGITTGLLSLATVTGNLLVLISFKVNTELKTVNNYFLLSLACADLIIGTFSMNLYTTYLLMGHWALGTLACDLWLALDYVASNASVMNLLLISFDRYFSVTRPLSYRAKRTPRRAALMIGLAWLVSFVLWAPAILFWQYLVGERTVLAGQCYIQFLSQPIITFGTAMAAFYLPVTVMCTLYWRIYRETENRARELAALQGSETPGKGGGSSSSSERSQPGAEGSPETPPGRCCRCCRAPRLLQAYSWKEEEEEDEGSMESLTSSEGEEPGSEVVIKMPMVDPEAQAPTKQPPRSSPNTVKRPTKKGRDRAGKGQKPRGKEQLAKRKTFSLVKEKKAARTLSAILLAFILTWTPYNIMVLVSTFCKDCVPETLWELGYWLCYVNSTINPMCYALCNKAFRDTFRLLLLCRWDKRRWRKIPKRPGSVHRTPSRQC
The experiment can be described thus: Functional mobilization of intracellular calcium (FLIPR), M1-CHO cells. The following applies: for Emax: 100% efficacy = maximum response obtained with the Carbachol control; for M1 Activity: M1-CHO cells, calcium mobilization (FLIPR). The gist of the method: (§1)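 FLIPR fluorescence (ex 488, em 540 nm) recorded 60 sec after compound addition to dye-loaded CHO cells. Agonist mode: compound alone. Antagonist mode: 15 min compound pre-incubation, then carbachol at EC80, or co-application. Efficacy expressed as % of maximal carbachol response.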

The target of experiment [2] is T2, M4 muscarinic receptor (Homo sapiens, UniProt P08173).
T2 construct: expressed in transfected cells; host or cells: CHO (M4-CHO)
T2 sequence (P08173 1-479): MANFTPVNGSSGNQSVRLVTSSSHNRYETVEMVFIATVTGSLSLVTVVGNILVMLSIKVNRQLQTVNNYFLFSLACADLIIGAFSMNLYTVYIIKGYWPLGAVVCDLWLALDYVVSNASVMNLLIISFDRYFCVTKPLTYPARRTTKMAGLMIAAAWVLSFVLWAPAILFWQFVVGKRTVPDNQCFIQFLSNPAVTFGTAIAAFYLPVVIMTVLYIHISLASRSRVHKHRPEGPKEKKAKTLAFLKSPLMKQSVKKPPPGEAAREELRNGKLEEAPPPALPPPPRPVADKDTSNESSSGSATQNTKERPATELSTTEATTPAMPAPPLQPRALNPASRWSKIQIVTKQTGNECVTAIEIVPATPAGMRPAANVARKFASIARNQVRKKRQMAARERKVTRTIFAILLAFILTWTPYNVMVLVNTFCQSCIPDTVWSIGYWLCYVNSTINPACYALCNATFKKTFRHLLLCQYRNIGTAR
The experiment can be described thus: Functional mobilization of intracellular calcium (FLIPR), M4-CHO cells. The following applies: for Emax: 100% efficacy = maximum response obtained with the Carbachol control; for M4 Activity: M4-CHO cells, calcium mobilization (FLIPR). The gist of the method:
as §1

Experiment [3] concerns the target T3, M2 muscarinic receptor (Homo sapiens, UniProt P08172).
T3 construct: expressed in transfected cells; host or cells: CHO (M2-CHO)
T3 sequence (P08172 1-466): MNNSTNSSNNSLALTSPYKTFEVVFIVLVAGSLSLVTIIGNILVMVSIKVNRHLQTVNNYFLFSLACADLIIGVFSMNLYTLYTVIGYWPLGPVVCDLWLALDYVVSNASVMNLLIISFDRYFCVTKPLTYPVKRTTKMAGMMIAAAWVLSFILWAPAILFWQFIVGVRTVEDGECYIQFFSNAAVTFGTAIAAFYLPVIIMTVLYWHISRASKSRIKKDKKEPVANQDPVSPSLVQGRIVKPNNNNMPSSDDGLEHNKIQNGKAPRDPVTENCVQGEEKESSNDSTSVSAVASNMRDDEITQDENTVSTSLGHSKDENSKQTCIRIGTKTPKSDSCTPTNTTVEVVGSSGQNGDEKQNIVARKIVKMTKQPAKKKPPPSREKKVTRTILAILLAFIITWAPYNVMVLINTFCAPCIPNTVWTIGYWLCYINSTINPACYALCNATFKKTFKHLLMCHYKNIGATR
Nature of the experiment: Functional mobilization of intracellular calcium (FLIPR), M2-CHO cells. The following applies: for Emax: 100% efficacy = maximum response obtained with the Carbachol control; for M2 Activity: M2-CHO cells, calcium mobilization (FLIPR). The gist of the method:
as §1

Experiment [4] has as its target T4, M3 muscarinic receptor (Homo sapiens, UniProt P20309).
T4 construct: expressed in transfected cells; host or cells: CHO (M3-CHO)
The experiment can be described thus: Functional mobilization of intracellular calcium (FLIPR), M3-CHO cells. The following applies: for Emax: 100% efficacy = maximum response obtained with the Carbachol control; for M3 Activity: M3-CHO cells, calcium mobilization (FLIPR). The gist of the method: as §1

T4 sequence (P20309 whole entry): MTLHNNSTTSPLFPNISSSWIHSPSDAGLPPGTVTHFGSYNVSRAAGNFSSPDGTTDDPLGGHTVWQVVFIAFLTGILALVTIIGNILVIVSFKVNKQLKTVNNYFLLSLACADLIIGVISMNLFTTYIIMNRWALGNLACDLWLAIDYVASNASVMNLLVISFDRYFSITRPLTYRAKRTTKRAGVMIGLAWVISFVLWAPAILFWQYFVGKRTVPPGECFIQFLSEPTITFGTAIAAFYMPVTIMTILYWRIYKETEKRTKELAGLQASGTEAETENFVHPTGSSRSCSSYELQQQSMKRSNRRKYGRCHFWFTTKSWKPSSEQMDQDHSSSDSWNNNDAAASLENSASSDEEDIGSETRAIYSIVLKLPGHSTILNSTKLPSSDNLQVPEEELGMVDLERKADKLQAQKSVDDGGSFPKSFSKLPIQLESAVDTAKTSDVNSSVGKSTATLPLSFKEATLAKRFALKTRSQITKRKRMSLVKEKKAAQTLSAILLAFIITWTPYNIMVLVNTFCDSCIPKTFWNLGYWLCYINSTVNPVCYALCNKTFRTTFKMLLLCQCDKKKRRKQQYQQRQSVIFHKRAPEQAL

Regarding `COc1ccc(Cl)cc1C1CCN(C2CCCCCC2)CC1` [Compound 181], in experiment [1], the Emax was 25 to 100% and the “M1 Activity” value is on record as “++ (activity was measured to be from 1.0 μM to 5.0 μM)”. Moreover, in experiment [2], the Emax fell in the range of 25 to 100% and the “M4 Activity” value is given as “+++ (activity was measured to be less than 1.0 μM)”. In experiment [3], the Emax is 25 to 100% and the “M2 Activity” value was “++ (activity was measured to be from 1.0 μM to 5.0 μM)”. Besides, in experiment [4], the Emax was less than 25% and the “M3 Activity” value is recorded as “+ (activity was measured to be greater than 5.0 μM)”.
As for `FC(F)(F)Oc1ccccc1C1CCN([C@H]2C[C@H]3CC[C@H]2C3)CC1` [Compound 183], in experiment [1], the Emax fell in the range of 25 to 100% and the “M1 Activity” value is reported as “+ (activity was measured to be greater than 5.0 μM)”. In experiment [2], the Emax is 25 to 100% and the “M4 Activity” value is listed as “+++ (activity was measured to be less than 1.0 μM)”. Besides, in experiment [3], the Emax was less than 25% and the “M2 Activity” value was “+ (activity was measured to be greater than 5.0 μM)”. In experiment [4], the Emax was less than 25% and the “M3 Activity” value is “+ (activity was measured to be greater than 5.0 μM)”.
On to `COc1ccc(-c2ccc(C(=O)NCCCO)cc2)cc1C1CCN(C2CCOCC2)CC1` [Compound 184], for which, in experiment [1], the Emax was less than 25% and the “M1 Activity” value is on record as “+ (activity was measured to be greater than 5.0 μM)”. Besides, in experiment [2], the Emax was less than 25% and the “M4 Activity” value is recorded as “+ (activity was measured to be greater than 5.0 μM)”. Also, in experiment [3], the Emax is less than 25% and the “M2 Activity” value is recorded as “+ (activity was measured to be greater than 5.0 μM)”. In experiment [4], the Emax was less than 25% and the “M3 Activity” value is on record as “+ (activity was measured to be greater than 5.0 μM)”.
As for `COc1ccc(C)cc1C1CCN([C@H]2CC[C@H]3CC[C@H]2C3)CC1` [Compound 185], in experiment [1], the Emax lay in the range of 25 to 100% and the “M1 Activity” value is given as “++ (activity was measured to be from 1.0 μM to 5.0 μM)”. In experiment [2], the Emax was in the range of 25 to 100% and the “M4 Activity” value is “+++ (activity was measured to be less than 1.0 μM)”. In experiment [3], the Emax lay within 25 to 100% and the “M2 Activity” value was “+ (activity was measured to be greater than 5.0 μM)”. In addition, in experiment [4], the Emax was less than 25% and the “M3 Activity” value is “+ (activity was measured to be greater than 5.0 μM)”.
As for `COc1ccc(Br)cc1C1CCN([C@@H]2C[C@@H]3CC[C@H]2C3)CC1` [Compound 187, 1-((1S,2R,4R)-bicyclo[2.2.1]heptan-2-yl)-4-(5-bromo-2-methoxyphenyl)piperidine], in experiment [1], the Emax lay in the range of 25 to 100% and the “M1 Activity” value is given as “+++ (activity was measured to be less than 1.0 μM)”. Further, in experiment [2], the Emax lay within 25 to 100% and the “M4 Activity” value is given as “+++ (activity was measured to be less than 1.0 μM)”. For the same molecule, in experiment [3], the Emax lay in the range of 25 to 100% and the “M2 Activity” value was “++ (activity was measured to be from 1.0 μM to 5.0 μM)”. For the same molecule, in experiment [4], the Emax is less than 25% and the “M3 Activity” value is listed as “+ (activity was measured to be greater than 5.0 μM)”.
As for `Cc1ccc(C(=O)COc2ccccc2C2CCN([C@H]3C[C@H]4CC[C@H]3C4)CC2)cc1` [Compound 188], in experiment [1], the Emax was 25 to 100% and the “M1 Activity” value was “+ (activity was measured to be greater than 5.0 μM)”. Further, in experiment [2], the Emax fell in the range of 25 to 100% and the “M4 Activity” value is “++ (activity was measured to be from 1.0 μM to 5.0 μM)”. In experiment [3], the Emax was in the range of 25 to 100% and the “M2 Activity” value is “+ (activity was measured to be greater than 5.0 μM)”. Also, in experiment [4], the Emax is less than 25% and the “M3 Activity” value is listed as “+ (activity was measured to be greater than 5.0 μM)”.
